Experimental data taken from a melting point compilation (Tetko et al.; mined from patent text by program, amines drawn as free bases though some values may be those of a salt).

melting point [°C] | SMILES
158 to 159 | CCOCc1nc2c(N)nc3cc(-c4ccccc4)cnc3c2n1CC(C)(C)O
152 to 154 | CNC(=O)c1ccccc1Nc1nc(Nc2cc3c(cc2OC)C(=O)N(C)CCC3)ncc1Cl
237 | O=C(Nc1cccc(S(=O)(=O)CCO)c1)c1cnn2c(C(F)(F)F)cc(-c3ccc(C(F)(F)F)cc3)nc12
31 to 32 | CC1(C)NC2(CCCCC2)NC1(C)C
248 to 250 | CN1C(=O)N2[C@H](c3cccc(O)c3)c3[nH]c4ccc(Cl)cc4c3C[C@@]2(C)C1=O (racemic)
204 to 206 | CSc1cn(C)c2c(-c3ccccc3)csc2c1=O
234 to 235 | O=C1NC(=O)C(c2cn3c4c(cccc24)CCC3)=C1c1ccc(F)cc1
133 to 139 | Nc1c(F)c(N2CCC(C3(N)CCC3)C2)c(F)c2c1c(=O)c(C(=O)O)cn2[C@@H]1C[C@@H]1F (some centres undefined)
140 to 141 | CCCn1c(=O)c(/C=C/C(=O)OCC)c2n(c1=O)CCS2
222 | N#Cc1ccc(-c2ncc(Br)cn2)cc1
173 to 174 | COc1ccc(COc2cccc(C(=O)Nc3ccc(S(C)(=O)=O)cc3)c2)cc1
104 to 106 | O=Cc1ccc(OCCn2ncc3ccccc3c2=O)cc1
140 to 141 | CCN1CCCC1CNC(=O)c1cc(NS(N)(=O)=O)c(C)cc1OC (centres undefined)
123 | CC(=O)Nc1cc(C)cc(N)c1
135 to 136 | NC(=O)Cc1c(CCN(Cc2ccccc2)Cc2ccccc2)[nH]c2ccccc12
> 300 | O=C(O)c1ccn(C2=CC3=C(CC2)CCc2[nH]c(=O)c(=O)n(O)c23)c1
161 | CCOC(=O)C1=C(COC(C)=O)Nc2nc(N3CCOCC3)nc(N3CCOCC3)c2C1c1cccc(Cl)c1Cl (centres undefined)
86 to 88 | CC1(C(=O)NCCc2cccs2)CC1
63 | N#CN=C(N)NCCCCNC(=O)[C@@H](Cc1ccccc1)NC(=O)CCCC(=O)O
146 to 147 | O=C1C(=O)N(CCN2CCN(Cc3ccc(F)cc3)CC2)c2ccccc21
162 to 165 | Sc1nncn1C1CCCCC1
135 to 138 | CCOc1ccc(-c2nc3n(c2-c2ccc(OCC)cc2)CCC3)cc1
134 to 136 | CON(C(=N)N)c1nc(C)cc(C)n1

melting point [°C] | SMILES
289 to 293 | O=C(O)c1cn(C2CC2)c2c(F)c(N3CCC3)c(F)cc2c1=O
175 to 179 | CCCCCC(=N)NC(=O)Nc1ccc(Cl)cc1
146 to 148 | CCOC(=O)c1cn(-c2nc(NCc3ccc(OC)cc3)c(F)cc2F)c2c(F)c(F)c(F)c(NCc3ccccc3)c2c1=O
154 to 155 | CN(c1cccc2cc(C3=NCC(C)(CCN4CCOCC4)S3)[nH]c12)S(=O)(=O)c1cccs1 (centres undefined)
85 to 87 | O=C(O)CCc1cc(CCNS(=O)(=O)c2ccc(Cl)cc2)cc(Cc2ccc(F)cc2)c1
45 to 47 | C=CC(=O)NCCCCCCCCOc1ccccc1
177 to 178 | Cc1cc(C(=O)NCO)ncc1C(c1c(F)ccc(F)c1F)S(=O)(=O)c1ccc(Cl)cc1 (centres undefined)
193 to 195 | Cc1ccc(-n2c(-c3ccc(CC(=O)O)cc3)ccc2-c2ccc(CC(=O)O)cc2)cc1
219 to 221 | O=C(O)c1cc([N+](=O)[O-])c(-c2ccccc2)c([N+](=O)[O-])c1
117 to 118 | CSC1CC(=O)N1CC(=O)O (single isomer, unassigned; (+))
168 to 169 | COc1ccc2c(c1OC)C(=O)c1c-2c(N2CCNCC2)nc2ccc(Cl)cc12
95 to 96 | CN(C)C=Nc1c(Cl)cc(N=Cc2cccc(F)c2)cc1Cl
205 to 206 | CCCCc1ccc(C(=O)Oc2ccc(C(=O)O)cc2)cc1C12CC3CC(CC(C3)C1)C2
144 to 146 | c1ccc(COc2ccc(N3c4ccccc4Sc4ccccc43)cc2)cc1
70 to 71 | CCOC(=O)CCCCCCCCCCCNC(=O)c1cc(OCc2ccccc2)ccc1OCc1ccccc1
102 | COC(CCCNC(=O)c1ccc2c(c1)C(=O)N(CCCC(OC)OC)C2=O)OC
212 to 217 | CC(=O)N1CCC(NC(=O)Nc2cccc(C(F)(F)F)c2)CC1
259 to 261 | CC(=NNc1ccc(C2=NNC(=O)CC2C)cc1)c1ccc(O)cc1O (centres undefined)
104 to 106 | Cc1cc(CO)oc1CN(C)C
143 to 145 | CC(C)C1CC(=O)C(=C2CCCN2)C(=O)C1 (centres undefined)
188 to 189 | C=CCn1c(=O)c2cccnc2n(-c2cccc([N+](=O)[O-])c2)c1=O
210 to 212 | COc1ccc(-c2coc3cc(O)ccc3c2=O)c(O)c1
52 to 53 | O=C(CCCCCBr)c1cc2c3c(c1)CCC(=O)N3CCC2

melting point [°C] | SMILES
158 to 160 | Cc1c(C(F)(F)C(F)(F)F)ncn(-c2c(Cl)cc(C(F)(F)F)cc2C#N)c1=O
257 to 263 | O=C(O)CN1C(=O)C(=Cc2ccc(OCc3ccc(C(F)(F)F)cc3)c(OCc3ccccc3)c2)SC1=S
204 to 207 | O=C(N[C@H]1CCN(C(=O)c2cc(C(F)(F)F)cc(C(F)(F)F)c2)[C@H](Cc2ccc(Cl)cc2)C1)c1ccnc2ccccc12
164 to 167 | CC(C)(C)c1cc(CCC(=O)NCCNc2cccc(Cl)c2C#N)cc(C(C)(C)C)c1O
226 to 227 | CCCc1c2c(c3oc(C(=O)O)cc(=O)c3c1O)CCCC2
150 to 151 | CC(=O)ON1C(C)(C)CC(C(N)=O)C1(C)C (centres undefined)
162 to 163 | CC(C)C(=C(c1ccccc1)c1ccccc1)P(C1CCCCC1)C1CCCCC1
101 to 102 | COc1ccc(CCNCC(O)COc2cccc3nn(Cc4ccccc4)cc23)cc1OC (centres undefined)
> 300 | Nc1ccc(Sc2c(O)c3c(=O)n(-c4ccccc4)c4ccccc4c3oc2=O)cc1
110 to 113 | CCCc1c(O)c(C(=O)O)cc(Cl)c1OCCCCCCc1cccc(O)c1O
102 to 103 | CCCOc1ccc(Cl)c2c(=O)c3ccccc3sc12
33 to 35 | COc1cc(C=O)ccn1
111 to 112 | CCc1cnn(CC(=O)O)c1OCCCc1cn(-c2ccc(C(F)(F)F)cn2)nc1C(C)C
> 360 | N=C(N)Nc1nc(Cl)cc(Cl)n1
97 to 98 | COC(=O)C1=C(C)N(CCCc2ccccc2)C(C)=C(C(=O)OC)C1c1ccc(OC)c(OC)c1
69 | Fc1ccc2sc(Cl)nc2c1
157 to 159 | COC(=O)C(=O)Nc1ccc2c3c(n(CCCNC(=O)OC(C)(C)C)c(=O)c2c1)-c1ccccc1C3=O
224 to 226 | Cc1ccc(S(=O)(=O)NC2(c3ccccc3)C3=NCC(C)(C)CN3c3ccccc32)cc1 (centres undefined)
117 to 119 | CCc1nc2c(cnn2CC)c(NC2CCOCC2)c1CNC(=O)c1cc(C)cc(C(=O)NCc2ccc(C)c(Br)c2)c1
133 to 135 | Cc1c(C)c2c(c(C)c1O)CCC(C)(C#Cc1cccs1)O2 (centres undefined)
128 to 130 | CC(C)C[C@H](NC(=O)[C@H](Cc1ccccc1)NC(=O)OCc1ccccc1)C(=O)N[C@@H](C(C)C)[C@@H](O)c1c(-c2ccccc2)c1=O

SMILES | melting point [°C]
Cc1ccccc1NC1(C#N)CCN(C(=O)c2cc(C(F)(F)F)cc(C(F)(F)F)c2)CC1 | 141 to 142
CC1(CO)C(O)CCC2(C)C1CCC1CC3CC12CCC3(O)CO (centres undefined) | 290 to 300
